Test results taken from the NIST ThermoML archive (doi:10.1016/j.jct.2011.01.014).
Numbers after ± are expanded uncertainties.

Assay: xn = mol fraction of the nth substance listed
Details: 101 kPa, Liquid; for mass density: Vibrating tube method; for speed of sound: sound velocity cell

CC(=O)[O-].[NH3+]CCO [2-hydroxyethylammonium acetate] + O
Details | mass density, 315.15 K [kg/m3] | mass density, 318.15 K [kg/m3] | mass density, 320.65 K [kg/m3] | mass density, 323.15 K [kg/m3] | speed of sound, 315.65 K [m/s] | speed of sound, 318.15 K [m/s] | speed of sound, 320.65 K [m/s] | speed of sound, 323.15 K [m/s]
x1 = 0.051 | – | 1042.25 ± 0.8 | 1041.08 ± 0.8 | 1040.15 ± 0.81 | 1692.3 ± 2.4 | 1692.3 ± 2.4 | 1692.2 ± 2.3 | 1691.8 ± 2.4
x1 = 0.1019 | – | 1071.02 ± 0.4 | 1069.74 ± 0.4 | 1068.47 ± 0.41 | 1757.5 ± 1.3 | 1755.5 ± 1.3 | 1753.5 ± 1.3 | 1751.2 ± 1.3
x1 = 0.1963 | – | 1100.71 ± 0.29 | 1099.34 ± 0.29 | 1097.97 ± 0.31 | 1803.5 ± 1.2 | 1799.9 ± 1.2 | 1796.1 ± 1.2 | 1792.3 ± 1.2
x1 = 0.2894 | – | 1114.92 ± 0.32 | 1113.53 ± 0.31 | 1112.14 ± 0.32 | 1806.9 ± 1.4 | 1802.6 ± 1.4 | 1798.2 ± 1.4 | 1793.9 ± 1.4
x1 = 0.3959 | – | 1124.1 ± 0.48 | 1122.69 ± 0.47 | 1121.29 ± 0.47 | 1793.1 ± 1.6 | 1788.4 ± 1.6 | 1783.6 ± 1.6 | 1778.9 ± 1.6
x1 = 0.5016 | – | 1129.18 ± 0.7 | 1127.77 ± 0.7 | 1126.36 ± 0.69 | 1780.5 ± 1.9 | 1775.6 ± 1.9 | 1770.7 ± 1.9 | 1765.9 ± 1.9
x1 = 0.5821 | 1133.13 ± 0.91 | 1131.74 ± 0.91 | 1130.35 ± 0.9 | 1128.95 ± 0.9 | 1777.4 ± 2 | 1772.5 ± 2 | 1767.6 ± 2 | 1762.8 ± 2
x1 = 0.6837 | 1134.98 ± 1.2 | 1133.59 ± 1.2 | 1132.19 ± 1.2 | 1130.79 ± 1.2 | 1768.2 ± 2.3 | 1763.2 ± 2.3 | 1758.2 ± 2.3 | 1753.3 ± 2.3
x1 = 0.7763 | 1136.83 ± 1.5 | 1135.45 ± 1.5 | 1134.06 ± 1.5 | 1132.67 ± 1.5 | 1766.2 ± 2.6 | 1761.2 ± 2.6 | 1756.1 ± 2.6 | 1751 ± 2.6
x1 = 0.8761 | 1138.14 ± 1.9 | 1136.76 ± 1.9 | 1135.38 ± 1.9 | 1134 ± 1.9 | 1755.7 ± 2.8 | 1750.5 ± 2.8 | 1745.3 ± 2.8 | 1740.2 ± 2.8
x1 = 0.9137 | 1138.48 ± 2.1 | 1137.11 ± 2.1 | 1135.73 ± 2.1 | 1134.36 ± 2.1 | 1757.1 ± 2.9 | 1751.9 ± 2.9 | 1746.7 ± 2.9 | 1741.5 ± 2.9
x1 = 1 | 1139.18 ± 2.5 | 1137.82 ± 2.5 | 1136.45 ± 2.5 | 1135.08 ± 2.5 | 1751.9 ± 3.2 | 1746.5 ± 3.2 | 1741.3 ± 3.2 | 1736 ± 3.2
